According to patent US12331044B2, “Inhibitors of histone deacetylase useful for the treatment or prevention of HIV infection” (Merck Sharp & Dohme LLC, priority 2018, dated 2025):
pIC50: −log10 of the molar value. Like-named read-outs stand apart in the source and are kept apart here.

Experiments:
[1] = tested on: KARN cells (Jurkat 2C4); test: cells; conditions: Homo sapiens
[2] = target: human HDAC2 (Homo sapiens (Human), UniProt Q92769); test: HDAC2 inhibition assay (modified FLUOR DE LYS, 384-well); assay type: biochemical; conditions: […] enzyme, 40 μM substrate BML-KI104, 3 h pre-incubation; read-out: HDAC2 IC50
Sequence of human HDAC2 (Q92769 whole entry): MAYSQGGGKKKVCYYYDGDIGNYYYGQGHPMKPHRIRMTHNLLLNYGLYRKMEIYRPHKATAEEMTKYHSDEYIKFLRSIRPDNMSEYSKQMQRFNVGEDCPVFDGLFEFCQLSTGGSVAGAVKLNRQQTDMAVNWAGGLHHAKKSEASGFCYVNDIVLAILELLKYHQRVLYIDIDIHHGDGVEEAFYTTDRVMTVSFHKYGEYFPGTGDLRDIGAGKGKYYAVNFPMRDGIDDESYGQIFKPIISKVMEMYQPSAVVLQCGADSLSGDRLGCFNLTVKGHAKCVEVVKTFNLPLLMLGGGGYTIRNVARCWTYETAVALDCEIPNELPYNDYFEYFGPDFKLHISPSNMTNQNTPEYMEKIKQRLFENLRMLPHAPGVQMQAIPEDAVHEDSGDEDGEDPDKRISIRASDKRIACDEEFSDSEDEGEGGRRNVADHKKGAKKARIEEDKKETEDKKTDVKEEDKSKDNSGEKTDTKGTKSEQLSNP

[3] = target: human HDAC1 (Homo sapiens (Human), UniProt Q13547)
Sequence of human HDAC1 (Q13547 whole entry): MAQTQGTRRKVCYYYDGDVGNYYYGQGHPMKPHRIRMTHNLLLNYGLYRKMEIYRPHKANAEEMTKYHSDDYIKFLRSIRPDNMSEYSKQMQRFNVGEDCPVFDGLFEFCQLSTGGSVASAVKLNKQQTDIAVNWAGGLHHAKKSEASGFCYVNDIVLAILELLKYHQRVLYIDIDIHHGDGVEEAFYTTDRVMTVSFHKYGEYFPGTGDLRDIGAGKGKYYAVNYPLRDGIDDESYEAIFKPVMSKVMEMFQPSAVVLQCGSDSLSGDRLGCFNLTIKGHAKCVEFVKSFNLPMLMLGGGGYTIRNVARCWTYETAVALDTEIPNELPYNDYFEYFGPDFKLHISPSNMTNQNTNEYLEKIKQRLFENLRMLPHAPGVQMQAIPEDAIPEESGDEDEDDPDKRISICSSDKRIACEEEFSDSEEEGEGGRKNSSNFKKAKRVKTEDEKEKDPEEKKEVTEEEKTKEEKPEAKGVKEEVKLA

[4] = target: human HDAC8 (Homo sapiens (Human), UniProt Q9BY41); test: HDAC8 inhibition assay (modified FLUOR DE LYS, 384-well); assay type: biochemical; conditions: […] enzyme, 200 μM substrate BML-KI178, 3 h pre-incubation; read-out: HDAC8 IC50
Sequence of human HDAC8 (Q9BY41 whole entry): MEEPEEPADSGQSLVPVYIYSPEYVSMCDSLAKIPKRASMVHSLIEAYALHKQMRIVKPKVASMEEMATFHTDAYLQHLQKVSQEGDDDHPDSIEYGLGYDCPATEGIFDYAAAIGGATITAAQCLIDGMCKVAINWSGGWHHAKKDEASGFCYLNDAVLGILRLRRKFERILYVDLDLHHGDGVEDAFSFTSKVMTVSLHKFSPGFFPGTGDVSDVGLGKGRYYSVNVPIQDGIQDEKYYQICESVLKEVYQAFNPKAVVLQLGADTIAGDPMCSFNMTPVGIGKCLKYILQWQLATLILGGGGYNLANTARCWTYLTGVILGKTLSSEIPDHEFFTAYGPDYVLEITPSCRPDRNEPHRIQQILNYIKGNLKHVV

[5] = target: human HDAC3/SMRT heterodimer (Homo sapiens (Human), UniProt O15379)
Sequence of human HDAC3/SMRT heterodimer (O15379 whole entry): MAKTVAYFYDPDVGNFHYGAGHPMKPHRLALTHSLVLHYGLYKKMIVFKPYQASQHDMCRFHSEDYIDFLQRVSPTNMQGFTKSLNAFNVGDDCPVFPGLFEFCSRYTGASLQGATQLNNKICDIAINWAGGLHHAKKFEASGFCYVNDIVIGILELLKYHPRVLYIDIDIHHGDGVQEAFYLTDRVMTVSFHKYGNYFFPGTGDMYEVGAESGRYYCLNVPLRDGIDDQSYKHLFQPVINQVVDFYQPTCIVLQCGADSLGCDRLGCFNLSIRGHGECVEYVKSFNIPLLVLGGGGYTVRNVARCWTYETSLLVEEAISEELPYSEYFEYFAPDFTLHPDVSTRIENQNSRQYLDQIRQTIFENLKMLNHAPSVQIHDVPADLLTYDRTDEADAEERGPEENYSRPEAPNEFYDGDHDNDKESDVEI
Sequence of human HDAC3/SMRT heterodimer (Q9Y618 1-899 partner): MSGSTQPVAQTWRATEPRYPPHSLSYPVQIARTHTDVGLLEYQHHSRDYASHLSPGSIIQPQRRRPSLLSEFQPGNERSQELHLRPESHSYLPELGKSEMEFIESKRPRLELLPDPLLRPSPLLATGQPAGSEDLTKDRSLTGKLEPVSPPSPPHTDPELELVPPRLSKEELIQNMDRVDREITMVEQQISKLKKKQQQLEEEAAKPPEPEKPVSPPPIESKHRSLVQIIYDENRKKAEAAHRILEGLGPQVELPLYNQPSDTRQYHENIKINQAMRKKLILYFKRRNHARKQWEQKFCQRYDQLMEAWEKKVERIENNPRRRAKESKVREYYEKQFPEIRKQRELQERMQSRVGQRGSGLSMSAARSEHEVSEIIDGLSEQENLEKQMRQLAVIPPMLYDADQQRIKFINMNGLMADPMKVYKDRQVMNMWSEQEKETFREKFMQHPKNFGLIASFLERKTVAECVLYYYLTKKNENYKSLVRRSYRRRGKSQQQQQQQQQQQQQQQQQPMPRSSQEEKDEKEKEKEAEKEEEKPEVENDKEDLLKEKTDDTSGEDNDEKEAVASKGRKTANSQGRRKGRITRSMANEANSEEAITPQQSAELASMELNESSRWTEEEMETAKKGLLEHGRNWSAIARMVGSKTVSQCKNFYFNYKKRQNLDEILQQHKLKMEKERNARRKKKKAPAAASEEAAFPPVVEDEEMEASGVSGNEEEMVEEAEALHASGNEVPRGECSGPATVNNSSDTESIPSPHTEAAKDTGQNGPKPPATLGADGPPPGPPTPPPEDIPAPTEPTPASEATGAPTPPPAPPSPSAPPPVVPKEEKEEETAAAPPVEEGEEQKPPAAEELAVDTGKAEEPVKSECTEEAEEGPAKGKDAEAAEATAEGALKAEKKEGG

[6] = target: HDAC6 (Homo sapiens (Human), UniProt Q9UBN7)
Sequence of HDAC6 (Q9UBN7 whole entry): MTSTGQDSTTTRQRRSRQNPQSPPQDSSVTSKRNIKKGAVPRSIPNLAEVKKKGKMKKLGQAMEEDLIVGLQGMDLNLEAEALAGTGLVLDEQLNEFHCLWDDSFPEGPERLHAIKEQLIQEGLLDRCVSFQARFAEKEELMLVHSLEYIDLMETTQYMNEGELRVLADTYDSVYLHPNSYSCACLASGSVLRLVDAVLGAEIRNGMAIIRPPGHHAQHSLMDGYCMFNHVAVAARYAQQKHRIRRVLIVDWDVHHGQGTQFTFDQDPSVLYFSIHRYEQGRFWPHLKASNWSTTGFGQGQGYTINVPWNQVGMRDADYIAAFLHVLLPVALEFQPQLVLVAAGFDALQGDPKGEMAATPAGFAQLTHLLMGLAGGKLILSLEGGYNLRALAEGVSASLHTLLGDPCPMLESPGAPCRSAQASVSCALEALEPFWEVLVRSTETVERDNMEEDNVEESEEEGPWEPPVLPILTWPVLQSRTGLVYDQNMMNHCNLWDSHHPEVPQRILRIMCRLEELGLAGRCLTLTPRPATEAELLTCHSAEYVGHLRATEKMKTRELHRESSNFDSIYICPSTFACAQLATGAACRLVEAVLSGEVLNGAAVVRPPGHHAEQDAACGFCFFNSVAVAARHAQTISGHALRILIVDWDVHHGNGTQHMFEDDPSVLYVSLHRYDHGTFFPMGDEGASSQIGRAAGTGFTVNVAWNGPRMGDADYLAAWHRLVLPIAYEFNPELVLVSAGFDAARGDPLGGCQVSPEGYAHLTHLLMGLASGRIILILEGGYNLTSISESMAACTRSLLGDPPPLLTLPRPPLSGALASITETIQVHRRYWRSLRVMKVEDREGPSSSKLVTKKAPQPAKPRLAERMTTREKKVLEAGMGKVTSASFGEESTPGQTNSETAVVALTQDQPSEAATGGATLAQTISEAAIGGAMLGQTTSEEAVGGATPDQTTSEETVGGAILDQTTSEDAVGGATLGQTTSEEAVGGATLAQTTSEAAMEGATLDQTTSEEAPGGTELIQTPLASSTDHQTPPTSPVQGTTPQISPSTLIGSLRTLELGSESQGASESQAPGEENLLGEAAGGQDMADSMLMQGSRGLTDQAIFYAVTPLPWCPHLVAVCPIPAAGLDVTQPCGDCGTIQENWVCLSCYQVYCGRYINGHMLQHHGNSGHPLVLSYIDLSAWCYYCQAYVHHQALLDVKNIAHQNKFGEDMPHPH

[7] = read-out: Karn EC50 nM 0.1% NHS, 0.1% normal human serum, luciferase induction, 2 μM SAHA = 100%
[8] = read-out: Karn EC50 nM 5% NHS, 5% normal human serum, luciferase induction, 2 μM SAHA = 100%

Row | Structure (SMILES) | EC50 [1, 7] | EC50 [1, 8] | pIC50 [2] | pIC50 [3] | pIC50 [4] | pIC50 [5] | pIC50 [6]
1 | Cn1cc2cc(-n3ccc([C@@H](N)CCCCCC(=O)c4ncco4)n3)ccc2n1 [Example 128, (7S)-7-amino-7-[1-(2-methyl-2H-indazol-5-yl)-1H-pyrazol-3-yl]-1-(1,3-oxazol-2-yl)heptan-1-one] | 1200 nM | 1500 nM | 7.26 | 8.10 | 5.37 | 8.00 | 4.35
2 | N[C@@H](CCCCCC(=O)c1ncco1)c1ncc(-c2cccc(C(F)(F)F)c2F)[nH]1 [Example 138, (7S)-7-amino-7-{5-[2-fluoro-3-(trifluoromethyl)phenyl]-1H-imidazol-2-yl}-1-(1,3-oxazol-2-yl)heptan-1-one] | 2200 nM | 3400 nM | 7.43 | 8.37 | 6.60 | 8.41 | < 6.05
3 | N[C@@H](CCCCCC(=O)c1ncco1)c1ncc(-c2ccc(C(F)(F)F)cc2F)[nH]1 [Example 139, (7S)-7-amino-7-{5-[2-fluoro-4-(trifluoromethyl)phenyl]-1H-imidazol-2-yl}-1-(1,3-oxazol-2-yl)heptan-1-one] | 1700 nM | 2700 nM | 7.55 | 8.25 | < 6.05 | 8.23 | < 6.05
4 | COc1ccc(-c2cnc([C@@H](N)CCCCCC(=O)c3ncco3)[nH]2)c(F)c1 [Example 140, (7S)-7-amino-7-[5-(2-fluoro-4-methoxyphenyl)-1H-imidazol-2-yl]-1-(1,3-oxazol-2-yl)heptan-1-one] | 390 nM | 860 nM | 8.22 | 9.00 | < 6.05 | 8.89 | < 6.05
5 | CS(=O)(=O)c1ccc(-c2cnc([C@@H](N)CCCCCC(=O)c3ncco3)[nH]2)c(F)c1 [Example 143, (7S)-7-amino-7-{5-[2-fluoro-4-(methylsulfonyl)phenyl]-1H-imidazol-2-yl}-1-(1,3-oxazol-2-yl)heptan-1-one] | 1200 nM | 1600 nM | 7.46 | 8.14 | < 6.05 | 8.10 | < 6.05
6 | COc1cc(O[C@H]2C[C@H](OC)C2)cc(-c2cnc([C@@H](N)CCCCCC(=O)c3ncco3)[nH]2)c1F [Example 144, (7S)-7-amino-7-(5-{2-fluoro-3-methoxy-5-[(trans-3-methoxycyclobutyl)oxy]phenyl}-1H-imidazol-2-yl)-1-(1,3-oxazol-2-yl)heptan-1-one] | 650 nM | 870 nM | 7.41 | 8.15 | 6.68 | 8.19 | < 6.05
7 | COc1nc2ccccc2cc1-c1cnc([C@H](CCCCCC(=O)c2ncco2)NC(=O)c2ccncn2)[nH]1 [Example 149, N-[(1S)-1-[5-(2-methoxyquinolin-3-yl)-1H-imidazol-2-yl]-7-(1,3-oxazol-2-yl)-7-oxoheptyl]pyrimidine-4-carboxamide] | 69 nM | 360 nM | 8.18 | 8.77 | 6.85 | 8.82 | 4.68
8 | COc1nc2ccccc2cc1-c1cnc([C@H](CCCCCC(=O)c2ncco2)NC(=O)Cn2cccc2)[nH]1 [Example 150, N-[(1S)-1-[5-(2-methoxyquinolin-3-yl)-1H-imidazol-2-yl]-7-(1,3-oxazol-2-yl)-7-oxoheptyl]-2-(1H-pyrrol-1-yl)acetamide] | 94 nM | 500 nM | 8.06 | 8.68 | 6.92 | 8.82 | 5.57
9 | COc1nc2ccccc2cc1-c1cnc([C@H](CCCCCC(=O)c2ncco2)NC(=O)C2COCCO2)[nH]1 (stereo partly drawn) [Example 152, N-[(1S)-1-[5-(2-methoxyquinolin-3-yl)-1H-imidazol-2-yl]-7-(1,3-oxazol-2-yl)-7-oxoheptyl]-1,4-dioxane-2-carboxamide] | 49 nM | 350 nM | 8.24 | 9.17 | 7.11 | 8.80 | 4.92
10 | COc1cc2nc(C)ccc2cc1-c1cnc([C@H](CCCCCC(=O)c2ncco2)NC(=O)CN2CCOCC2=O)[nH]1 [Example 158, N-[(1S)-1-[5-(7-methoxy-2-methylquinolin-6-yl)-1H-imidazol-2-yl]-7-(1,3-oxazol-2-yl)-7-oxoheptyl]-2-(3-oxomorpholin-4-yl)acetamide] | 210 nM | 210 nM | 8.25 | 8.96 | 7.32 | 8.82 | 6.23
11 | COc1cc2nc(C)ccc2cc1-c1cnc([C@H](CCCCCC(=O)c2ncco2)NC(=O)c2cc3ncccn3n2)[nH]1 [Example 161, N-[(1S)-1-[5-(7-methoxy-2-methylquinolin-6-yl)-1H-imidazol-2-yl]-7-(1,3-oxazol-2-yl)-7-oxoheptyl]pyrazolo[1,5-a]pyrimidine-2-carboxamide] | 75 nM | 210 nM | 7.96 | 8.77 | 7.36 | 9.24 | < 6.05
12 | COc1cc2nc(C)ccc2cc1-c1cnc([C@H](CCCCCC(=O)c2ncco2)NC(=O)Cn2cccc2)[nH]1 [Example 162, N-[(1S)-1-[5-(7-methoxy-2-methylquinolin-6-yl)-1H-imidazol-2-yl]-7-(1,3-oxazol-2-yl)-7-oxoheptyl]-2-(1H-pyrrol-1-yl)acetamide] | 650 nM | 1200 nM | 7.62 | 8.38 | 6.52 | 8.82 | < 6.05
13 | COc1cc2nc(C)ccc2cc1-c1cnc([C@H](CCCCCC(=O)c2ncco2)NC(=O)c2cc3n(n2)CCCO3)[nH]1 [Example 163, N-[(1S)-1-[5-(7-methoxy-2-methylquinolin-6-yl)-1H-imidazol-2-yl]-7-(1,3-oxazol-2-yl)-7-oxoheptyl]-6,7-dihydro-5H-pyrazolo[5,1-b][1,3]oxazine-2-carboxamide] | 84 nM | 210 nM | 8.08 | 8.80 | 7.42 | 9.28 | < 6.05
14 | COc1cc2nc(C)ccc2cc1-c1cnc([C@H](CCCCCC(=O)c2ncco2)NC(=O)c2cc3n(n2)CCS(=O)(=O)C3)[nH]1 [Example 165, N-[(1S)-1-[5-(7-methoxy-2-methylquinolin-6-yl)-1H-imidazol-2-yl]-7-(1,3-oxazol-2-yl)-7-oxoheptyl]-6,7-dihydro-4H-pyrazolo[5,1-c][1,4]thiazine-2-carboxamide 5,5-dioxide] | 370 nM | 760 nM | 8.14 | 8.64 | 7.39 | 9.34 | < 6.05
15 | COc1cc2nc(C)ccc2cc1-c1cnc([C@H](CCCCCC(=O)c2ncco2)NC(=O)Cn2ccc(C)n2)[nH]1 [Example 166, N-[(1S)-1-[5-(7-methoxy-2-methylquinolin-6-yl)-1H-imidazol-2-yl]-7-(1,3-oxazol-2-yl)-7-oxoheptyl]-2-(3-methyl-1H-pyrazol-1-yl)acetamide] | 77 nM | 200 nM | 8.21 | 8.77 | 7.12 | 9.25 | 6.18
16 | COc1cc2nc(C)ccc2cc1-c1cnc([C@H](CCCCCC(=O)c2ncco2)NC(=O)c2cc3ccccn3n2)[nH]1 [Example 167, N-[(1S)-1-[5-(7-methoxy-2-methylquinolin-6-yl)-1H-imidazol-2-yl]-7-(1,3-oxazol-2-yl)-7-oxoheptyl]pyrazolo[1,5-a]pyridine-2-carboxamide] | 83 nM | 400 nM | 7.89 | 8.66 | 7.20 | 9.23 | < 6.05
17 | COc1cc2nc(C)ccc2cc1-c1cnc([C@H](CCCCCC(=O)c2ncco2)NC(=O)C2CCCCO2)[nH]1 (stereo partly drawn) [Example 168, N-[(1S)-1-[5-(7-methoxy-2-methylquinolin-6-yl)-1H-imidazol-2-yl]-7-(1,3-oxazol-2-yl)-7-oxoheptyl]tetrahydro-2H-pyran-2-carboxamide] | 100 nM | 200 nM | 7.92 | 8.52 | 6.92 | 8.92 | < 6.05
18 | COc1cc2nc(C)ccc2cc1-c1cnc([C@H](CCCCCC(=O)c2ncco2)NC(=O)C2CCCO2)[nH]1 (stereo partly drawn) [Example 169, N-[(1S)-1-[5-(7-methoxy-2-methylquinolin-6-yl)-1H-imidazol-2-yl]-7-(1,3-oxazol-2-yl)-7-oxoheptyl]tetrahydrofuran-2-carboxamide] | 99 nM | 270 nM | 7.82 | 8.47 | 6.74 | 8.92 | < 6.05
19 | COc1cc2nc(C)ccc2cc1-c1cnc([C@H](CCCCCC(=O)c2ncco2)NC(=O)C2(C)CCCCO2)[nH]1 (stereo partly drawn) [Example 170, N-[(1S)-1-[5-(7-methoxy-2-methylquinolin-6-yl)-1H-imidazol-2-yl]-7-(1,3-oxazol-2-yl)-7-oxoheptyl]-2-methyltetrahydro-2H-pyran-2-carboxamide] | 160 nM | 260 nM | 7.77 | 8.39 | 6.66 | 8.80 | < 6.05
